# Source: patent US20070275961A1, “Triazolo ' 1, 5-A ! Pyrimidines and Their Use in Medicine” (VERNALIS (CAMBRIDGE) LIMITED., priority 2003, published 2007)
# Where two headings read alike, the source gives them in different places.
# Experiments:
# Format in all cases: biochemical
# [1] = target: CDK2 enzyme, complexed with cyclin A (Homo sapiens, UniProt P24941); assay: CDK2 cyclin dependent kinase assay, phosphorylation of synthetic peptide […] (33P-ATP filtration); conditions: 0.1 mM ATP
# Method: (§1) The assay mixture containing the inhibitor and CDK2 enzyme, complexed with cyclin A (0.4 U/ml) was mixed together in a microtiter plate in a final volume of 50 μl and incubated for 40 min at 30° C. The assay mixture contained 0.1 mM unlabeled ATP, 0.01 μCi/μl ^33P-γ-ATP, 0.03 mM peptide, 0.1 mg/ml BSA, 7.5 mM magnesium acetate, 50 mM HEPES-NaOH, pH 7.5. The reaction was stopped by adding 50 μl of 50 mM phosphoric acid. 90 μl of the mixture were transferred to a pre-wetted 96-well Multiscreen MAPHNOB filtration plate (Millipore) and filtered on a vacuum manifold. The filter plate was washed with three successive additions of 200 μl 50 mM phosphoric acid and then with 100 μl methanol. The filtration plate was dried for 10 min at 65° C., scintillant added and phosphorylated peptide quantified in a scintillation counter (Trilux, PerkinElmer).
# HEPES is N-[2-hydroxyethyl]piperazine-N′-[2-ethanesulfonic acid]. BSA is bovine serum albumin.
# PDK1 enzyme = target: T1, PDK1 enzyme (Homo sapiens, UniProt O15530); assay: PDK1 3'-phosphoinositide-dependent kinase assay, phosphorylation of synthetic peptide (33P-ATP filtration); conditions: 0.01 mM ATP, read-out: PDK1 IC50
# T1 sequence (O15530 1-556): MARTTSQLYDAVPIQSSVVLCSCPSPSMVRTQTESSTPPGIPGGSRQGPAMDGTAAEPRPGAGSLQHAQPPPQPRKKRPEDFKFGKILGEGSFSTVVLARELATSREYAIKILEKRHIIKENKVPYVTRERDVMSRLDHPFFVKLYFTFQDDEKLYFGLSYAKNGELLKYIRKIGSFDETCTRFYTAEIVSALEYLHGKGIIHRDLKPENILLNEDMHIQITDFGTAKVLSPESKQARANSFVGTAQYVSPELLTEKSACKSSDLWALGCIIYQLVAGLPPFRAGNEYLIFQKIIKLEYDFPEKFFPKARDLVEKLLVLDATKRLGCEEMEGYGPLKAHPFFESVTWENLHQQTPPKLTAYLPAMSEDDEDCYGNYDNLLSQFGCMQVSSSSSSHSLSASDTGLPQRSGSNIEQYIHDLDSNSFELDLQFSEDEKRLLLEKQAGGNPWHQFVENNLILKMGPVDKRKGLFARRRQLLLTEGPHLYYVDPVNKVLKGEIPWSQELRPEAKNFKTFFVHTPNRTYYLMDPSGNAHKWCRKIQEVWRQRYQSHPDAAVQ
# Method: as §1, with “and PDK1 enzyme” for “and CDK2 enzyme, complexed with cyclin A (0.4 U/ml)”, “for 60” for “for 40”, “contained 0.01” for “contained 0.1”, “^33P-γ-ATP, 0.075” for “^33P-γ-ATP, 0.03”, “acetate, 0.05 M Tris.HCl,” for “acetate, 50 mM HEPES-NaOH,”, “pH 7.5, 0.5% 2-mercaptoethanol.” for “pH 7.5.”
# Chk1 = target: T2, Chk1 (Homo sapiens, UniProt O14757); assay: Chk1 kinase assay, phosphorylation of Chktide (33P-ATP filtration); conditions: 0.01 mM ATP, read-out: Chk1 IC50
# T2 sequence (O14757 1-476): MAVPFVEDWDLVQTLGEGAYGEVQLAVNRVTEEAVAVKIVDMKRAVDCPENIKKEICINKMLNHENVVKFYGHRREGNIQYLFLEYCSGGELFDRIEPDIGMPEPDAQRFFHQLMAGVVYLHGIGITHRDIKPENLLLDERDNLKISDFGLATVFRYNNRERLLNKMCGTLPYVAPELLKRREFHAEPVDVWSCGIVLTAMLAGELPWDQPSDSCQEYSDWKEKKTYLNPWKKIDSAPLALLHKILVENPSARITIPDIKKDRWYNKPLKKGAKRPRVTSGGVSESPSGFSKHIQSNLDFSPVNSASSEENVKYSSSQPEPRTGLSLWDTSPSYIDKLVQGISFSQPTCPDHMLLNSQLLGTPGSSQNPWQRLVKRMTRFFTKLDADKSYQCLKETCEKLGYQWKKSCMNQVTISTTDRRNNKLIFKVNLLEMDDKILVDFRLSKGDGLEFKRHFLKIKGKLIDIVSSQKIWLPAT
# Method: Assays for the Chk1 kinase activity were carried out by monitoring the phosphorylation of a synthetic peptide Chktide with the amino acid sequence, […]. The assay mixture containing the inhibitor and Chk1 enzyme was mixed together in a microtiter plate in a final volume of 50 μl and incubated for 40 minutes at 30° C.
# The assay mixture contained 0.01 mM unlabeled ATP, 0.5 μCi ^33P-γ-ATP, 30 μM Chktide, 0.1 mg/ml BSA, 50 mM Hepes-NaOH pH 7.5 and 11 nM GST-Chk1 enzyme. The reaction was stopped by adding 50 μl of 50 mM phosphoric acid. 90 μl of the mixture was transferred to a pre-wetted 96-well Multiscreen MAPHNOB filtration plate (Millipore) and filtered on a vacuum manifold. The filter plate was washed with three successive additions of 200 μl 50 mM phosphoric acid and then with 100 μl methanol. The filtration plate was dried for 10 min at 65° C., scintillant added and phosphorylated peptide quantified in a scintillation counter (Trilux, PerkinElmer).
smiles,measurement,setting,value
Cc1cccc(-c2cc(Nc3ccc(N4CCN(C)CC4)cc3)nc3ncnn23)c1 [Example 109],IC50,[1]; Table 3,> 200 µM
same,IC50,PDK1 enzyme; Table 3,36 µM
same,IC50,Chk1; Table 3,6.7 µM
O=C(O)c1ccc(Nc2cc(-c3cccc(F)c3)n3ncnc3n2)cc1 [Example 132],IC50,[1]; Table 3,> 200 µM
same,IC50,PDK1 enzyme; Table 3,36.2 µM
same,IC50,Chk1; Table 3,> 200 µM
CCN(CC)CCOc1cccc(-c2cc(Nc3ccc(C(N)=O)cc3)nc3ncnn23)c1 [Example 146],IC50,[1]; Table 4,5.51 µM
same,IC50,PDK1 enzyme; Table 4,7.6 µM
same,IC50,Chk1; Table 4,20.8 µM
O[C@H]1CC[C@H](Nc2cc(Cl)nc3ncnn23)CC1 [Example 43],IC50,[1]; Table 1,> 200 µM
same,IC50,PDK1 enzyme; Table 1,> 200 µM
same,IC50,Chk1; Table 1,> 200 µM
N#Cc1ccc(Nc2cc(Cl)nc3ncnn23)cc1 [Example 41],IC50,[1]; Table 1,61.4 µM
same,IC50,PDK1 enzyme; Table 1,> 200 µM
same,IC50,Chk1; Table 1,> 200 µM
NCCCOc1cccc(-c2cc(Nc3ccc(C(N)=O)cc3)nc3ncnn23)c1 [Example 147],IC50,[1]; Table 4,71.7 µM
same,IC50,PDK1 enzyme; Table 4,6.13 µM
same,IC50,Chk1; Table 4,5.21 µM
COc1ccc(Nc2cc(Cl)nc3ncnn23)cn1 [Example 42],IC50,[1]; Table 1,11.8 µM
same,IC50,PDK1 enzyme; Table 1,> 200 µM
same,IC50,Chk1; Table 1,> 200 µM
CS(=O)(=O)c1ccc(CNc2cc(Cl)nc3ncnn23)cc1 [Example 95],IC50,[1]; Table 2,76.2 µM
same,IC50,PDK1 enzyme; Table 2,> 200 µM
same,IC50,Chk1; Table 2,> 200 µM
CS(=O)(=O)c1ccc(Nc2cc(NC3C4CC5CC(C4)CC3C5)nc3ncnn23)cc1 (stereo not drawn) [Example 102],IC50,[1]; Table 2,10.9 µM
same,IC50,PDK1 enzyme; Table 2,3.55 µM
same,IC50,Chk1; Table 2,59.4 µM
CCN(c1cc(Nc2ccc(S(C)(=O)=O)cc2)n2ncnc2n1)C(C)C [Example 85],IC50,[1]; Table 2,0.86 µM
same,IC50,PDK1 enzyme; Table 2,2.89 µM
same,IC50,Chk1; Table 2,> 200 µM
Oc1ccc(Cl)cc1Nc1cc(Cl)nc2ncnn12 [Example 32],IC50,[1]; Table 1,31.6 µM
same,IC50,PDK1 enzyme; Table 1,> 200 µM
same,IC50,Chk1; Table 1,> 200 µM
CN(C)Cc1ccccc1-c1cc(Nc2cc(Cl)ccc2O)n2ncnc2n1 [Example 26],IC50,[1]; Table 1,> 200 µM
same,IC50,PDK1 enzyme; Table 1,> 200 µM
same,IC50,Chk1; Table 1,105 µM
CCOC(=O)c1ccc(Nc2cc(-c3cccc(O)c3)nc3ncnn23)cc1 [Example 50],IC50,[1]; Table 1,31.9 µM
same,IC50,PDK1 enzyme; Table 1,> 200 µM
same,IC50,Chk1; Table 1,> 200 µM
CCN(CC)CCNC(=O)c1ccc(Nc2cc(C(C)C)n3ncnc3n2)cc1 [Example 122],IC50,[1]; Table 3,> 200 µM
same,IC50,PDK1 enzyme; Table 3,> 200 µM
same,IC50,Chk1; Table 3,22.9 µM
NS(=O)(=O)c1cccc(Nc2cc(Cl)nc3ncnn23)c1 [Example 52],IC50,[1]; Table 1,40.9 µM
same,IC50,PDK1 enzyme; Table 1,> 200 µM
same,IC50,Chk1; Table 1,> 200 µM
CS(=O)(=O)c1ccc(Nc2cc(-c3cccc(F)c3)n3ncnc3n2)cc1 [Example 119],IC50,[1]; Table 3,> 200 µM
same,IC50,PDK1 enzyme; Table 3,115 µM
same,IC50,Chk1; Table 3,2.58 µM
NS(=O)(=O)c1ccc(Nc2ccnc3ncnn23)cc1 [Example 30],IC50,[1]; Table 1,33 µM
same,IC50,PDK1 enzyme; Table 1,> 200 µM
same,IC50,Chk1; Table 1,72 µM
CCN(CC)CCNC(=O)c1ccc(Nc2cc(-c3ccccc3)n3ncnc3n2)cc1 [Example 121],IC50,[1]; Table 3,> 200 µM
same,IC50,PDK1 enzyme; Table 3,15.4 µM
same,IC50,Chk1; Table 3,2.25 µM
